Measurements as given in the kinase profiling compilation of Christmann-Franck et al. (2016).
“And” between values parts separate entries of the source, which are not always exact repeats. Equal entries are not always repeated.

How the values were obtained:
Assay in all cases: KINOMEscan competition binding
Settings in all cases: compound 10.0 µM
PKMYT1 (human) = PKMYT1 (human) (UniProt Q99640)
PRKCE (human) = PRKCE (human) (UniProt Q02156)
CDK17 (human) = CDK17 (human) (UniProt Q00537)
EPHB4 (human) = EPHB4 (human) (UniProt P54760)
MAP3K7 (human) = MAP3K7 (human) (UniProt O43318)
NUAK1 (human) = NUAK1 (human) (UniProt O60285)
Sequence of NUAK1 (human) (O60285 whole entry, looked up): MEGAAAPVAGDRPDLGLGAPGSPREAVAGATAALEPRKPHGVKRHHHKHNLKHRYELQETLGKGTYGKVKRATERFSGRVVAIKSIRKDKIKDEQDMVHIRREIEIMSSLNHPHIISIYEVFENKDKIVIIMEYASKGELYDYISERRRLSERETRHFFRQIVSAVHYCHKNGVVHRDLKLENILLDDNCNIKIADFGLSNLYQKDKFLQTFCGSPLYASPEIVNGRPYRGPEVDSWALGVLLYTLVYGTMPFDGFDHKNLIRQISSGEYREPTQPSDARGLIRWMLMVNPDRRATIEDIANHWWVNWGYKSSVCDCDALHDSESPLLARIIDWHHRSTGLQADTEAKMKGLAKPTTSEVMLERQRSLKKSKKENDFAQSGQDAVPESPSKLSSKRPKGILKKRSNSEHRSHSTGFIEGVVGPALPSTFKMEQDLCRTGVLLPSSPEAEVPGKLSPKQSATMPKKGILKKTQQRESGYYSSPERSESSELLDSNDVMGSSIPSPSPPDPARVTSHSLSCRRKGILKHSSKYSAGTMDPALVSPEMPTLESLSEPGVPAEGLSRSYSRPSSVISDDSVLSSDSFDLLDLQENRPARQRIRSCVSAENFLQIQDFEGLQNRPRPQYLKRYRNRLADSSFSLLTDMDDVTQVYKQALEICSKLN

GSK3B (human) = GSK3B (human) (UniProt P49841)
Sequence of GSK3B (human) (P49841 whole entry, looked up): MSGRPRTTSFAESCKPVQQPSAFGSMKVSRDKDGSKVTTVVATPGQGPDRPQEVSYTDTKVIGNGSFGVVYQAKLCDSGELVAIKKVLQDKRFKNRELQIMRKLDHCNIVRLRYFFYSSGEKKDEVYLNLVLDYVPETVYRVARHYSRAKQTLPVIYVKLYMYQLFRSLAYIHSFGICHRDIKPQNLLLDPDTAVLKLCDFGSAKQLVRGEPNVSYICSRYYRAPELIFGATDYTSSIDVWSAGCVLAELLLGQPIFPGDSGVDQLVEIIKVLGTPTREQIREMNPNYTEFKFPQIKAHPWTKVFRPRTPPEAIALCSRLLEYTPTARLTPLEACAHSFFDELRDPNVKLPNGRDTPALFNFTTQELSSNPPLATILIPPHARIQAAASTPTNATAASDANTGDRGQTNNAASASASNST

TAOK1 (human) = TAOK1 (human) (UniProt Q7L7X3)
FLT1 (human) = FLT1 (human) (UniProt P17948)
AKT1 (human) = AKT1 (human) (UniProt P31749)
MAPK7 (human) = MAPK7 (human) (UniProt Q13164)
LCK (human) = LCK (human) (UniProt P06239)
CSF1R (human) = CSF1R (human) (UniProt P07333)
Sequence of CSF1R (human) (P07333 whole entry, looked up): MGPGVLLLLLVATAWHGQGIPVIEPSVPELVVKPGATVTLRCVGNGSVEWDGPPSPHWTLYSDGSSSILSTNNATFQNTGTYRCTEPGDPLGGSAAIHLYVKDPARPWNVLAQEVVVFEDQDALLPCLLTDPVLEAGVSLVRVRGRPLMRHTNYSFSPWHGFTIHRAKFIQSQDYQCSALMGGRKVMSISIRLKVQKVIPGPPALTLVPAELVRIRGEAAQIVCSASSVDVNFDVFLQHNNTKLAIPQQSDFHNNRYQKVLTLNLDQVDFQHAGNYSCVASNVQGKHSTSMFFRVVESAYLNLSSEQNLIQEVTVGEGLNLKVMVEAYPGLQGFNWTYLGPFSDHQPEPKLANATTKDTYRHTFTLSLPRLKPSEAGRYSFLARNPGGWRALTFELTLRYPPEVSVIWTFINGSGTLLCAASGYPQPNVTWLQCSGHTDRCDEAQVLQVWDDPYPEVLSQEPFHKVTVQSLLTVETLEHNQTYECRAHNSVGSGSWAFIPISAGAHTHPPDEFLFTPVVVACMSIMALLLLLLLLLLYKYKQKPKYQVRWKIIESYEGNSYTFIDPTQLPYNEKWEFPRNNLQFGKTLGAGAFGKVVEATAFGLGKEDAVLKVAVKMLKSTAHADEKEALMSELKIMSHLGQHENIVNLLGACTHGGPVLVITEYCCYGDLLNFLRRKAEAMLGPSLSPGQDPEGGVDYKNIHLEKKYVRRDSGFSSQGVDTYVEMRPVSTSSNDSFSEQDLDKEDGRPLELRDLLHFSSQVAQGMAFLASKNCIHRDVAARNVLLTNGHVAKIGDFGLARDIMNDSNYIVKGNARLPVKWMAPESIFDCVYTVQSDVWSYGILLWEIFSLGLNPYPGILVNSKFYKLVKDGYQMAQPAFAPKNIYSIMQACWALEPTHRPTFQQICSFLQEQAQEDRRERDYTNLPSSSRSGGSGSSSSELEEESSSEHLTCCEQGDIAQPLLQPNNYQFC

PAK7 (human) = PAK7 (human) (UniProt Q9P286)
MAPK8 (human) = MAPK8 (human) (UniProt P45983)
CAMK1D (human) = CAMK1D (human) (UniProt Q8IU85)
MKNK2 (human) = MKNK2 (human) (UniProt Q9HBH9)
EPHA8 (human) = EPHA8 (human) (UniProt P29322)
Sequence of EPHA8 (human) (P29322 whole entry, looked up): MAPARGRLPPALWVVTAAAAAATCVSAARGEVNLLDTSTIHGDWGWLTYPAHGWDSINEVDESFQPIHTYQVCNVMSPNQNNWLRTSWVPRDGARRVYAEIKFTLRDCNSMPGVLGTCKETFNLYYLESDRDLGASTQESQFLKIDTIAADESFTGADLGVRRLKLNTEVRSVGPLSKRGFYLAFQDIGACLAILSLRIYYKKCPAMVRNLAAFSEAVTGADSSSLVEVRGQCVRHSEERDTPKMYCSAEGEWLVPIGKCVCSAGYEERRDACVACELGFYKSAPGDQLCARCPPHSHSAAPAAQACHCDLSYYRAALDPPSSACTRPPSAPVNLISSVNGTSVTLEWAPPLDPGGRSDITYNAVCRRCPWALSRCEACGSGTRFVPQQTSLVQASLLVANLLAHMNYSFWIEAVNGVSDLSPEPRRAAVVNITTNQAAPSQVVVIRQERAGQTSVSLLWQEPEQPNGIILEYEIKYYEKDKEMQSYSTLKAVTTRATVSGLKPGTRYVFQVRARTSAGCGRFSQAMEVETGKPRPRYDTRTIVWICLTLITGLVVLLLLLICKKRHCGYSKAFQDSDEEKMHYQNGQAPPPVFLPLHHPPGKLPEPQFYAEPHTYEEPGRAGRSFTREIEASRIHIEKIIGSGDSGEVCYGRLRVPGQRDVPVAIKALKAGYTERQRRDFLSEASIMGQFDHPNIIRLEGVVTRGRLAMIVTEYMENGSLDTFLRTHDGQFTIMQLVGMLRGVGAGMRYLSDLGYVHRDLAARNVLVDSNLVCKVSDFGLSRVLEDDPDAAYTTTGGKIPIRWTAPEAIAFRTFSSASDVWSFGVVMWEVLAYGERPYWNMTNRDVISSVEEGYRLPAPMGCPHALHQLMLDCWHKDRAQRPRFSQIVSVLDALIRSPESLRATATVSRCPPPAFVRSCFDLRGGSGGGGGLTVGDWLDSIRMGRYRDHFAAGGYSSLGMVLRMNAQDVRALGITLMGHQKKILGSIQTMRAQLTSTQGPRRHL

PTK2 (human) = PTK2 (human) (UniProt Q05397)
PIM2 (human) = PIM2 (human) (UniProt Q9P1W9)
PIM1 (human) = PIM1 (human) (UniProt P11309)
MAPK12 (human) = MAPK12 (human) (UniProt P53778)
LTK (human) = LTK (human) (UniProt P29376)
PRKG2 (human) = PRKG2 (human) (UniProt Q13237)
TEK (human) = TEK (human) (UniProt Q02763)
LYN (human) = LYN (human) (UniProt P07948)
EPHB1 (human) = EPHB1 (human) (UniProt P54762)
PIM3 (human) = PIM3 (human) (UniProt Q86V86)
NEK2 (human) = NEK2 (human) (UniProt P51955)
Sequence of NEK2 (human) (P51955 whole entry, looked up): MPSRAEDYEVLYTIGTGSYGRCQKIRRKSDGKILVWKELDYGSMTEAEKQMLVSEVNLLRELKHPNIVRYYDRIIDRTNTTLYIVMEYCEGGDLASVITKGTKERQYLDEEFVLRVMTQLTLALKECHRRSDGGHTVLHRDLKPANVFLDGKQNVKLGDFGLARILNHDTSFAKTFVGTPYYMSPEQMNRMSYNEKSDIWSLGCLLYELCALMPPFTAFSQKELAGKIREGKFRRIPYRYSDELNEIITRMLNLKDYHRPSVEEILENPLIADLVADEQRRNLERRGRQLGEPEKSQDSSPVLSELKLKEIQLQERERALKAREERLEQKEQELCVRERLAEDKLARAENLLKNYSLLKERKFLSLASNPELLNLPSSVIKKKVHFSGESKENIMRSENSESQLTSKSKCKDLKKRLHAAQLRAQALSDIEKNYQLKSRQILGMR

LIMK1 (human) = LIMK1 (human) (UniProt P53667)
GAK (human) = GAK (human) (UniProt O14976)
RPS6KA5 KD1 (human) = RPS6KA5 KD1 (human) (UniProt O75582)
CSNK2A2 (human) = CSNK2A2 (human) (UniProt P19784)
Sequence of CSNK2A2 (human) (P19784 whole entry, looked up): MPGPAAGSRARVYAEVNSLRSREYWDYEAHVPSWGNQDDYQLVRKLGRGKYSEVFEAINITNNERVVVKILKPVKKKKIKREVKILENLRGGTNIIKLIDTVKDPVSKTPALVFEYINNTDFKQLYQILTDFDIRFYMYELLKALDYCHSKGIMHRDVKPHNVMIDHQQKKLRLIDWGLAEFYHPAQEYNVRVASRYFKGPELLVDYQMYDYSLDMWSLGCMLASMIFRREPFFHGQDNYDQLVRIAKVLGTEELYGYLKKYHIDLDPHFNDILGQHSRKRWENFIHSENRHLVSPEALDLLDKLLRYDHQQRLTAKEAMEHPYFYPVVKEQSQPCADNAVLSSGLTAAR

PRKCH (human) = PRKCH (human) (UniProt P24723)
PAK3 (human) = PAK3 (human) (UniProt O75914)
Sequence of PAK3 (human) (O75914 whole entry, looked up): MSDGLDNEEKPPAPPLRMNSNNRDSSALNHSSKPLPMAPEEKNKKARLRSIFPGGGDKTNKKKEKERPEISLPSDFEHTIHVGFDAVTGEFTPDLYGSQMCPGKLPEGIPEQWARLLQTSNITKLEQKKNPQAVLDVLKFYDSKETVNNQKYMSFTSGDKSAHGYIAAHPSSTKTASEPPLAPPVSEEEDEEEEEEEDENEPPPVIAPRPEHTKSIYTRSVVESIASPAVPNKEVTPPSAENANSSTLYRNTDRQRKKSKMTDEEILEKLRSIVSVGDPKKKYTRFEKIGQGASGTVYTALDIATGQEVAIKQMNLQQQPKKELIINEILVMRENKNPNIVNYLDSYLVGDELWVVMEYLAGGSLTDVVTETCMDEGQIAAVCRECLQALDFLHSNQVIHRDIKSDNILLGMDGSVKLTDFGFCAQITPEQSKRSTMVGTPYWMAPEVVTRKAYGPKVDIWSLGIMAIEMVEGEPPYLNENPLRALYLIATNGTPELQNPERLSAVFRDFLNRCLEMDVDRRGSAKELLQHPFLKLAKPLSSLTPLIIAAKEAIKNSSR

FES (human) = FES (human) (UniProt P07332)
STK36 (human) = STK36 (human) (UniProt Q9NRP7)
ULK1 (human) = ULK1 (human) (UniProt O75385)
[1] = test system: FLT3 (human), P36888 [ITD]
NLK (human) = NLK (human) (UniProt Q9UBE8)
CSNK2A1 (human) = CSNK2A1 (human) (UniProt P68400)

Sequence of CDK17 (human) (Q00537 whole entry, looked up): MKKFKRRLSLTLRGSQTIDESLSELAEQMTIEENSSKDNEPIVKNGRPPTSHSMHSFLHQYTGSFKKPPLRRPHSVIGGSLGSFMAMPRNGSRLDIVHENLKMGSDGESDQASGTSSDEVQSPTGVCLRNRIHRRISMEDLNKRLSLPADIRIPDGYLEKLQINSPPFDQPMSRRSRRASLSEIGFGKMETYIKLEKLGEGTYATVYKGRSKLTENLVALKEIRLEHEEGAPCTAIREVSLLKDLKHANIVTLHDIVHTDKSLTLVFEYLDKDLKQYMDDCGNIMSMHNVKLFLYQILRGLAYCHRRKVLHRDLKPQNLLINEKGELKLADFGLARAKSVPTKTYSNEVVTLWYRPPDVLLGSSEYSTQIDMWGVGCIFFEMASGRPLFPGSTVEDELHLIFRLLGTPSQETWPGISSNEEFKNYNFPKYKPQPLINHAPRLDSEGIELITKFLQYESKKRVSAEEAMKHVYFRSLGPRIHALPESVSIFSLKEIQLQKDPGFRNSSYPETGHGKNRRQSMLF

## Cc1cc([C@@H](C)Nc2ccccc2C(=O)O)c2nc(N3CCOCC3)cc(=O)n2c1
PKMYT1 (human)
  kinase still bound, per cent of control: 100%
PRKCE (human)
  kinase still bound, per cent of control: 100%
CDK17 (human)
  kinase still bound, per cent of control: 100%
EPHB4 (human)
  kinase still bound, per cent of control: 96%
MAP3K7 (human)
  kinase still bound, per cent of control: 89%
NUAK1 (human)
  kinase still bound, per cent of control: 100%
GSK3B (human)
  kinase still bound, per cent of control: 100%
TAOK1 (human)
  kinase still bound, per cent of control: 59%
FLT1 (human)
  kinase still bound, per cent of control: 83%
AKT1 (human)
  kinase still bound, per cent of control: 100%
MAPK7 (human)
  kinase still bound, per cent of control: 100%
LCK (human)
  kinase still bound, per cent of control: 97%
CSF1R (human)
  kinase still bound, per cent of control: 94%
PAK7 (human)
  kinase still bound, per cent of control: 99%
MAPK8 (human)
  kinase still bound, per cent of control: 100%
CAMK1D (human)
  kinase still bound, per cent of control: 100%
MKNK2 (human)
  kinase still bound, per cent of control: 92%
EPHA8 (human)
  kinase still bound, per cent of control: 96%
PTK2 (human)
  kinase still bound, per cent of control: 88%
PIM2 (human)
  kinase still bound, per cent of control: 70%
PIM1 (human)
  kinase still bound, per cent of control: 100%
MAPK12 (human)
  kinase still bound, per cent of control: 94%
LTK (human)
  kinase still bound, per cent of control: 95%
PRKG2 (human)
  kinase still bound, per cent of control: 98%
TEK (human)
  kinase still bound, per cent of control: 100%
LYN (human)
  kinase still bound, per cent of control: 99%
EPHB1 (human)
  kinase still bound, per cent of control: 98%
PIM3 (human)
  kinase still bound, per cent of control: 100%
NEK2 (human)
  kinase still bound, per cent of control: 71%
LIMK1 (human)
  kinase still bound, per cent of control: 100%
GAK (human)
  kinase still bound, per cent of control: 75%
RPS6KA5 KD1 (human)
  kinase still bound, per cent of control: 81%
CSNK2A2 (human)
  kinase still bound, per cent of control: 100%
PRKCH (human)
  kinase still bound, per cent of control: 82%
PAK3 (human)
  kinase still bound, per cent of control: 98%
FES (human)
  kinase still bound, per cent of control: 94%
STK36 (human)
  kinase still bound, per cent of control: 100%
ULK1 (human)
  kinase still bound, per cent of control: 91%
[1]
  kinase still bound, per cent of control: 53%
NLK (human)
  kinase still bound, per cent of control: 94%
CSNK2A1 (human)
  kinase still bound, per cent of control: 100%

## O=C(NOC[C@H](O)CO)c1ccc(F)c(F)c1Nc1ccc(I)cc1F
PKMYT1 (human)
  kinase still bound, per cent of control: 80%
PRKCE (human)
  kinase still bound, per cent of control: 100%
CDK17 (human)
  kinase still bound, per cent of control: 95%
EPHB4 (human)
  kinase still bound, per cent of control: 100%
MAP3K7 (human)
  kinase still bound, per cent of control: 75%
NUAK1 (human)
  kinase still bound, per cent of control: 81%
GSK3B (human)
  kinase still bound, per cent of control: 68%
TAOK1 (human)
  kinase still bound, per cent of control: 100%
FLT1 (human)
  kinase still bound, per cent of control: 94%
AKT1 (human)
  kinase still bound, per cent of control: 81%
MAPK7 (human)
  kinase still bound, per cent of control: 88%
LCK (human)
  kinase still bound, per cent of control: 88%
CSF1R (human)
  kinase still bound, per cent of control: 100% and 80%
PAK7 (human)
  kinase still bound, per cent of control: 100%
MAPK8 (human)
  kinase still bound, per cent of control: 92%
CAMK1D (human)
  kinase still bound, per cent of control: 89%
MKNK2 (human)
  kinase still bound, per cent of control: 100%
EPHA8 (human)
  kinase still bound, per cent of control: 94%
PTK2 (human)
  kinase still bound, per cent of control: 85%
PIM2 (human)
  kinase still bound, per cent of control: 75%
PIM1 (human)
  kinase still bound, per cent of control: 100%
MAPK12 (human)
  kinase still bound, per cent of control: 100%
LTK (human)
  kinase still bound, per cent of control: 100%
PRKG2 (human)
  kinase still bound, per cent of control: 86%
TEK (human)
  kinase still bound, per cent of control: 100%
LYN (human)
  kinase still bound, per cent of control: 72%
EPHB1 (human)
  kinase still bound, per cent of control: 100%
PIM3 (human)
  kinase still bound, per cent of control: 100%
NEK2 (human)
  kinase still bound, per cent of control: 70%
LIMK1 (human)
  kinase still bound, per cent of control: 68%
GAK (human)
  kinase still bound, per cent of control: 71%
RPS6KA5 KD1 (human)
  kinase still bound, per cent of control: 87%
CSNK2A2 (human)
  kinase still bound, per cent of control: 100%
PRKCH (human)
  kinase still bound, per cent of control: 100%
PAK3 (human)
  kinase still bound, per cent of control: 100%
FES (human)
  kinase still bound, per cent of control: 100%
STK36 (human)
  kinase still bound, per cent of control: 74%
ULK1 (human)
  kinase still bound, per cent of control: 100%
[1]
  kinase still bound, per cent of control: 100%
NLK (human)
  kinase still bound, per cent of control: 77%
CSNK2A1 (human)
  kinase still bound, per cent of control: 77%
